# Data reported in PMC6582486, “Stapled EGFR peptide reduces inflammatory breast cancer and inhibits additional HER-driven models of cancer” (Journal of Translational Medicine, 2019).
# Where a SMILES comes first, the peptide text is derived from it. Bridges are numbered along the chain shown (N, C = ends). [ ]: non-standard residue; d: D form. R8 = C=CCCCCCC[C@@](C)(N)C(=O)O; S5 = C=CCCC[C@](C)(N)C(=O)O
# Columns and labels:
# [1] = tested on: luciferized murine glioma (Ink4a/ARF-/-; hEGFRvIII); assay: Orthotopic EGFRvIII glioblastoma mouse model, survival; format: in vivo, nude mice; details: SAH5-EJ1 10 µg/g IV (N = 4), control peptide N = 6
# Method: Patient samples used were provided by the Biobank Core Facility at Barrow Neurological Institute. Samples were de-identified and conformed to the Biobank IRB protocol. Patient-derived cell lines (GB16 and GB71) were established from resected primary GBM tumor tissue. Tissue was processed using the Gentle MACS Dissociator and Tumor Tissue Dissociation kit (Miltenyi Biotec Inc.; Auburn, CA). Animal husbandry was performed according to the guidelines of St. Joseph Hospital and Medical Center and Barrow Neurological Institute under the Institutional Animal Care and Use Committee-approved protocol. Five- to six-week-old CrTac: NCr-Foxn1^nu nude mice (Taconic Biosciences; Hudson, NY) were used for in vivo orthotropic transplant of luciferized murine glioma model (Ink4a/ARF^−/−; hEGFRvIII). For orthotopic transplants, 2 μL of dissociated cells at a density of 100,000 cells/μL were injected in the right striatum, as described previously. In vivo tumor growth was measured by IVIS xenogen bioluminescence imaging (BLI) system after IP injection of 150 mg/kg Luciferin (Gold Biotechnology; St, Louis, MO) every week after 1-month post-surgery. […]
# Fig. 2 SAH5-EJ1 enters cells, colocalizes with mitochondria, and survives in vivo, resulting in glioblastoma-derived cell death and glioma mouse model survival. […] H Luminescence distribution throughout organs. […]
# [2] = 28-day toxicity study: treatment observation frequency; format: in vivo, CD-1 mice; details: for Treatment observation: Animals with Signs: 28 days
# Method: Toxicology was performed by IITRI. The study was conducted in compliance with the US Food and Drug Administration (FDA) good laboratory practice (GLP) Regulations (Code of Federal Regulations Title 21 Part 58) to evaluate the toxicokinetics, local tolerability, immunogenicity, and potential toxicity of SAH5-EJ1 following three times per week intravenous (IV) dosing for 28 days in mice. Male and female CD-1 IGS [Crl:CD1(ICR)] mice (135 per sex) were received from Wilmington, MA-based Charles River Laboratories, Inc.’s Kingston facility (Stone Ridge, NY).
smiles,measurement,setting,value
CC[C@H](C)[C@H](NC(=O)[C@H](Cc1c[nH]cn1)NC(=O)[C@H](CCCNC(=N)N)NC(=O)[C@H](CCCNC(=N)N)NC(=O)[C@H](CCCNC(=N)N)NC(=O)[C@H](CCSC)NC(=O)[C@H](Cc1ccccc1)NC(=O)[C@H](C)NC(=O)[C@H](CCCNC(=N)N)NC(=O)[C@H](C)NC(=O)[C@H](CCC(N)=O)NC(=O)[C@H](CCCNC(=N)N)NC(=O)[C@H](C)NC(=O)[C@H](C)NC(=O)[C@H](C)NC(=O)[C@H](CCCNC(=N)N)NC(=O)[C@H](C)NC(=O)[C@@H](N)Cc1ccc(O)cc1)C(=O)N[C@H](C(=O)N[C@@H](CCCNC(=N)N)C(=O)N[C@@H](CCCCN)C(=O)N[C@@H](CCCNC(=N)N)C(=O)N[C@]1(C)CCCCCCC=CCCC[C@@](C)(C(=O)N[C@@H](CCCNC(=N)N)C(=O)N[C@@H](CCC(=O)O)C(N)=O)NC(=O)[C@H](CCC(N)=O)NC(=O)[C@H](CC(C)C)NC(=O)[C@H](CC(C)C)NC(=O)[C@H](CCCNC(=N)N)NC(=O)[C@H](CCCNC(=N)N)NC(=O)[C@H](CC(C)C)NC1=O)C(C)C [SAH5-EJ1] (H-YARAAARQARAFMRRRHIVRKR[R8]LRRLLQ[S5]RE-NH2; staple 23-30),mice alive after 72 days,[1],75%
same,Treatment observation: Discolored Urine (animals),"[2]; female, 5 mg/kg, 10 examined",0
same,Treatment observation: General (animals),"[2]; female, 5 mg/kg, 10 examined",0
same,Treatment observation: Hunched Posture (animals),"[2]; female, 5 mg/kg, 10 examined",0
same,Treatment observation: Hypoactive (animals),"[2]; female, 5 mg/kg, 10 examined",0
same,Treatment observation: Normal (animals),"[2]; female, 5 mg/kg, 10 examined",10
same,Treatment observation: Animals with Signs,"[2]; female, 5 mg/kg, 10 examined",0
same,Treatment observation: Discolored Urine (animals),"[2]; female, 10 mg/kg, 10 examined",0
same,Treatment observation: General (animals),"[2]; female, 10 mg/kg, 10 examined",0
same,Treatment observation: Hunched Posture (animals),"[2]; female, 10 mg/kg, 10 examined",0
same,Treatment observation: Hypoactive (animals),"[2]; female, 10 mg/kg, 10 examined",0
same,Treatment observation: Normal (animals),"[2]; female, 10 mg/kg, 10 examined",10
same,Treatment observation: Animals with Signs,"[2]; female, 10 mg/kg, 10 examined",0
same,Treatment observation: Discolored Urine (animals),"[2]; female, 15 mg/kg, 15 examined",1
same,Treatment observation: General (animals),"[2]; female, 15 mg/kg, 15 examined",2
same,Treatment observation: Hunched Posture (animals),"[2]; female, 15 mg/kg, 15 examined",1
same,Treatment observation: Hypoactive (animals),"[2]; female, 15 mg/kg, 15 examined",2
same,Treatment observation: Normal (animals),"[2]; female, 15 mg/kg, 15 examined",15
same,Treatment observation: Animals with Signs,"[2]; female, 15 mg/kg, 15 examined",2
same,Treatment observation: Discolored Urine (animals),"[2]; male, 5 mg/kg, 10 examined",0
same,Treatment observation: General (animals),"[2]; male, 5 mg/kg, 10 examined",0
same,Treatment observation: Normal (animals),"[2]; male, 5 mg/kg, 10 examined",10
same,Treatment observation: Rough Coat (animals),"[2]; male, 5 mg/kg, 10 examined",0
same,Treatment observation: Animals with Signs,"[2]; male, 5 mg/kg, 10 examined",0
same,Treatment observation: Discolored Urine (animals),"[2]; male, 10 mg/kg, 10 examined",0
same,Treatment observation: General (animals),"[2]; male, 10 mg/kg, 10 examined",0
same,Treatment observation: Normal (animals),"[2]; male, 10 mg/kg, 10 examined",10
same,Treatment observation: Rough Coat (animals),"[2]; male, 10 mg/kg, 10 examined",0
same,Treatment observation: Animals with Signs,"[2]; male, 10 mg/kg, 10 examined",0
same,Treatment observation: Discolored Urine (animals),"[2]; male, 15 mg/kg, 15 examined",1
same,Treatment observation: General (animals),"[2]; male, 15 mg/kg, 15 examined",2
same,Treatment observation: Normal (animals),"[2]; male, 15 mg/kg, 15 examined",15
same,Treatment observation: Rough Coat (animals),"[2]; male, 15 mg/kg, 15 examined",2
same,Treatment observation: Animals with Signs,"[2]; male, 15 mg/kg, 15 examined",2
